Assay [1] concerns the target Glycogen synthase kinase-3 alpha (Homo sapiens, UniProt P49840). As to the kind of experiment: TR-FRET Assay. The method, boiled down: (§1)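 Enzyme and test compound were first incubated together for 30 minutes in assay buffer. The kinase reaction followed and was stopped with EDTA. The pSer641 signal was read by time-resolved FRET.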
Background: TR-FRET usually uses a lanthanide donor and a delayed reading to cut background.

Assay [2] deals with Glycogen synthase kinase-3 beta (Homo sapiens, UniProt P49841). As to the kind of experiment: TR-FRET Assay. The method, boiled down: as §1

Values joined by “and” are separate entries in the source; they are usually repeats but may differ in a detail not shown here. Equal entries are not always repeated. Some results are limits rather than exact numbers.

As a reminder, the IC50 is the concentration needed to halve the response being measured. A higher IC50 goes with a need for much substance.

Chain of Glycogen synthase kinase-3 beta (P49841 whole entry): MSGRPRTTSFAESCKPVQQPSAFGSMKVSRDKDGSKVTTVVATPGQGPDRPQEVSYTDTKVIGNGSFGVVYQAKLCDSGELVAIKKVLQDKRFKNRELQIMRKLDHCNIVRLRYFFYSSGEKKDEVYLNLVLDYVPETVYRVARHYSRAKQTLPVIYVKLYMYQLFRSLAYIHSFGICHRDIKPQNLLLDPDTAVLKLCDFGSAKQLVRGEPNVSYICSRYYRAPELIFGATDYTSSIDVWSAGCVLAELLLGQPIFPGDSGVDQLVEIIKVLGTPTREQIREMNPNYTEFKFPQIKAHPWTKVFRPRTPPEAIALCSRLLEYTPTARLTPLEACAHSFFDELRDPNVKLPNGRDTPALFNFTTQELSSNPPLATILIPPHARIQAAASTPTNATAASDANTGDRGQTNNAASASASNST
Chain of Glycogen synthase kinase-3 alpha (P49840 whole entry): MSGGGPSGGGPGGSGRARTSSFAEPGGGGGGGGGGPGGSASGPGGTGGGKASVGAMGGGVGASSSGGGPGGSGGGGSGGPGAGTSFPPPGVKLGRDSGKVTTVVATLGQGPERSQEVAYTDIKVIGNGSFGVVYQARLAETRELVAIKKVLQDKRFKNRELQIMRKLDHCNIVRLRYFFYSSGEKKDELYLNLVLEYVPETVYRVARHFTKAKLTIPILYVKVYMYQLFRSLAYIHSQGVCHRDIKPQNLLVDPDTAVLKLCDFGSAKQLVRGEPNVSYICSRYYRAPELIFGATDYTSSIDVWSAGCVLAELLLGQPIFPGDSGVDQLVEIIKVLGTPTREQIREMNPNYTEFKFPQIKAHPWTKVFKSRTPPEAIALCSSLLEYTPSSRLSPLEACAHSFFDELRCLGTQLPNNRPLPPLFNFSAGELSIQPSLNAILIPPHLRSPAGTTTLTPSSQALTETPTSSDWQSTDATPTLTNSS

With `CCC1(c2cccc(-c3cc(C)nn3C)c2)C2=CN=NC2NC2=C1C(=O)CC(C)(C)C2` (configuration not stated) [US20250313563, Compound 929402], the IC50 in assay [1] was < 100 nM; in assay [2], 100 to 1000 nM.
Regarding `CC1(C)CC(=O)C2=C(C1)NC1=C(CN=N1)C21CN(Cc2ccccc2)C1` [US20250313563, Compound 929436], the IC50 in assay [1] and in assay [2] was > 5000 nM throughout.
On to `CC1(C)CC(=O)C2=C(C1)NC1=C(CN=N1)C21CCN(S(=O)(=O)Cc2ccccc2)CC1` [US20250313563, Compound 929437], for which the IC50 is < 100 nM in assay [1]; < 100 nM and 100 to 1000 nM in assay [2].
Turning to `CC1(C)CC(=O)C2=C(C1)NC1=C(CN=N1)C21CN(Cc2ccccn2)C1` [US20250313563, Compound 929438], the half-inhibitory concentration (IC50) in assay [1] and in assay [2] was > 5000 nM throughout.
`Cn1cc(CN2CC3(C2)C2=C(N=NC2)NC2=C3C(=O)CC(C)(C)C2)cn1` [US20250313563, Compound 929439]: the IC50 in assay [1] and in assay [2] was > 5000 nM in each case.
On to `CC1(C)CC(=O)C2=C(C1)NC1=C(CN=N1)C21CN(S(=O)(=O)CC2CC2)C1` [US20250313563, Compound 929440], for which the IC50 in assay [1] and in assay [2] was < 100 nM each time.
Consider `CC1(C)CC(=O)C2=C(C1)NC1=C(CN=N1)C21CN(CCc2ccccc2)C1` [US20250313563, Compound 929441], for which the half-inhibitory concentration (IC50) in assay [1] and in assay [2] was > 5000 nM each time.
In the case of `CC[C@@]1(c2cccc(N(C)C(=O)c3ccn(C)n3)c2)C2=CN=NC2NC2=C1C(=O)CC(C)(C)C2` (some centres not stated) [US20250313563, Compound 929442], the values for the 50% inhibitory concentration (IC50) in assay [1] and in assay [2] were < 100 nM and 100 to 1000 nM, respectively.
Regarding `CC[C@]1(c2cccc(-c3ccnnc3)c2)C2=CN=NC2NC2=C1C(=O)CC(C)(C)C2` (some centres not stated) [US20250313563, Compound 929443], the IC50 in assay [1] and in assay [2] was > 5000 nM each time.
With `CC[C@]1(c2cccc(N(C)c3ccnc(F)c3)c2)C2=CN=NC2NC2=C1C(=O)CC(C)(C)C2` (some centres not stated) [US20250313563, Compound 929444], the IC50 in assay [1] and in assay [2] was < 100 nM each time.
With `CCc1cc(-c2cccc(C3(CC)C4=CN=NC4NC4=C3C(=O)CC(C)(C)C4)c2)cc(CC)n1` (configuration not stated) [US20250313563, Compound 929445], the IC50 was 1000 to 5000 nM in assay [1] and > 5000 nM in assay [2].
Turning to `CC1(C)CC(=O)C2=C(C1)NC1=C(CN=N1)C21CN(C2CCCCC2)C1` [US20250313563, Compound 929446], the IC50 in assay [1] and in assay [2] was 1000 to 5000 nM each time.
As to `CCN1CC2(C1)C1=C(N=NC1)NC1=C2C(=O)CC(C)(C)C1` [US20250313563, Compound 929448], the IC50 in assay [1] and in assay [2] was > 5000 nM each time.
Consider `CCC1(c2cccc(N3CCc4cnccc4C3)c2)C2=CN=NC2NC2=C1C(=O)CC(C)(C)C2` (configuration not stated) [US20250313563, Compound 929449], for which the IC50 in assay [1] and in assay [2] was 1000 to 5000 nM in each case.
For `CC[C@]1(c2cc(N(C)C(C)=O)ccc2F)C2=CN=NC2NC2=C1C(=O)CC(C)(C)C2` (some centres not stated) [US20250313563, Compound 929450], the 50% inhibitory concentration (IC50) was < 100 nM in assay [1] and 100 to 1000 nM in assay [2].
The like results for `CC[C@]1(c2cc(N(C)C(C)=O)ccc2F)C2=C(CC(C)(C)CC2=O)NC2N=NC(C)=C21` (some centres not stated) [US20250313563, Compound 929451] were, in that order, > 5000 nM and > 5000 nM.
The like results for `CCCS(=O)(=O)c1cccc([C@]2(CC)C3=CN=NC3NC3=C2C(=O)CC(C)(C)C3)c1` (some centres not stated) [US20250313563, Compound 929452] were, in that order, 1000 to 5000 nM and > 5000 nM.
The like results for `CC[C@@]1(c2cccc(N(C)c3ccnc(F)c3)c2)C2=CN=NC2NC2=C1C(=O)CC(C)(C)C2` (some centres not stated) [US20250313563, Compound 929453] were, in that order, 1000 to 5000 nM and > 5000 nM.
In the case of `CC[C@@]1(c2cccc(-c3ccnnc3)c2)C2=CN=NC2NC2=C1C(=O)CC(C)(C)C2` (some centres not stated) [US20250313563, Compound 929454], the IC50 in assay [1] is < 100 nM and 100 to 1000 nM; in assay [2] it was < 100 nM and 1000 to 5000 nM.
Take `CC[C@]1(c2cccc(N(C)C(=O)c3ccn(C)n3)c2)C2=CN=NC2NC2=C1C(=O)CC(C)(C)C2` (some centres not stated) [US20250313563, Compound 929455]: the IC50 in assay [1] and in assay [2] was > 5000 nM throughout.
For the molecule `CC[C@@]1(c2cccc(C(F)(F)F)c2)C2=CN=NC2NC2=C1C(=O)N(c1ccccc1)CC2` (some centres not stated) [US20250313563, Compound 929475], the half-maximal inhibitory concentration (IC50) in assay [1] and in assay [2] was > 5000 nM each time.
With `CC[C@]1(c2cccc(C(F)(F)F)c2)C2=C(N=NC2)NC2=C1C(=O)N(Cc1ccccc1)[C@@H]2C` [US20250313563, Compound 930330], the IC50 in assay [1] was < 100 nM; in assay [2] it was 100 to 1000 nM.
The like results for `CC[C@]1(c2cccc(C(F)(F)F)c2)C2=C(N=NC2)NC2=C1C(=O)N(Cc1ccccc1)[C@H]2C` [US20250313563, Compound 930331] were, in that order, < 100 nM and 100 to 1000 nM.
For the molecule `CC[C@@]1(c2cccc(C(F)(F)F)c2)C2=C(N=NC2)NC2=C1C(=O)N(Cc1ccccc1)[C@@H]2C` [US20250313563, Compound 930332], the figures for the half-inhibitory concentration (IC50) in assay [1] and in assay [2] were 1000 to 5000 nM and > 5000 nM, respectively.
For `CC[C@@]1(c2cccc(C(F)(F)F)c2)C2=C(N=NC2)NC2=C1C(=O)N(Cc1ccccc1)[C@H]2C` [US20250313563, Compound 930333], the IC50 in assay [1] and in assay [2] was > 5000 nM throughout.
As to `CCC1(c2cccc(O)c2)C2=C(N=NC2)NC2=C1C(=O)CC(C)(C)C2` (configuration not stated) [US20250313563, Compound 930334], the IC50 in assay [1] is < 100 nM; in assay [2] it was 100 to 1000 nM.
The matching figures for `CC1(C)CC(=O)C2=C(C1)NC1N=NC=C1[C@@]21CCCc2ccccc21` (some centres not stated) [US20250313563, Compound 930565]: 1000 to 5000 nM and > 5000 nM.
The like results for `CC1(C)CC(=O)C2=C(C1)NC1N=NC=C1[C@]21CCCc2ccccc21` (some centres not stated) [US20250313563, Compound 930566] were, in that order, < 100 nM and 100 to 1000 nM.
The like results for `CCC1(c2cccc(-c3ccnc(C(C)C)c3)c2)C2=CN=NC2NC2=C1C(=O)CC(C)(C)C2` (configuration not stated) [US20250313563, Compound 930569] were, in that order, 100 to 1000 nM and 1000 to 5000 nM.
Consider `CCC1(c2cccc(-c3ccnc4c3CCCC4)c2)C2=CN=NC2NC2=C1C(=O)CC(C)(C)C2` (configuration not stated) [US20250313563, Compound 932625], for which the IC50 in assay [1] and in assay [2] was < 100 nM in each case.
In the case of `CCC1(c2cccc(-c3ccnc(OC(C)C)c3)c2)C2=CN=NC2NC2=C1C(=O)CC(C)(C)C2` (configuration not stated) [US20250313563, Compound 932626], the IC50 in assay [1] and in assay [2] was 100 to 1000 nM each time.
As to `CCC1(c2cccc(-c3ccncc3OC)c2)C2=CN=NC2NC2=C1C(=O)CC(C)(C)C2` (configuration not stated) [US20250313563, Compound 932627], the IC50 in assay [1] and in assay [2] was < 100 nM throughout.
With `CCC1(c2cccc(-c3ccnc(OC)c3C)c2)C2=CN=NC2NC2=C1C(=O)CC(C)(C)C2` (configuration not stated) [US20250313563, Compound 932628], the IC50 in assay [1] was < 100 nM; in assay [2] it was 100 to 1000 nM.
With `CCC1(c2cccc(-c3ccnc(OC(F)F)c3)c2)C2=CN=NC2NC2=C1C(=O)CC(C)(C)C2` (configuration not stated) [US20250313563, Compound 932629], the IC50 in assay [1] was < 100 nM; in assay [2], 100 to 1000 nM.
`CCC1(c2cccc(-c3cc(OC)ncc3F)c2)C2=CN=NC2NC2=C1C(=O)CC(C)(C)C2` (configuration not stated) [US20250313563, Compound 932630]: the IC50 in assay [1] and in assay [2] was < 100 nM in each case.
Consider `CCC1(c2cccc(-c3ccnc4ccccc34)c2)C2=CN=NC2NC2=C1C(=O)CC(C)(C)C2` (configuration not stated) [US20250313563, Compound 932631], for which the IC50 in assay [1] and in assay [2] was < 100 nM each time.
Regarding `CC1(C)CC(=O)C2=C(C1)NC1N=NC=C1C21CCCN(S(=O)(=O)Cc2ccccc2)CC1` (configuration not stated) [US20250313563, Compound 932632], the IC50 in assay [1] was < 100 nM; in assay [2] it was 100 to 1000 nM.
Consider `CC1(C)CC(=O)C2=C(C1)NC1N=NC=C1C21CCCN(c2ccncc2)CC1` (configuration not stated) [US20250313563, Compound 932633], for which the IC50 in assay [1] and in assay [2] was > 5000 nM in each case.
In the case of `CCC1(c2cccc(N(C)c3ccc(C(F)(F)F)nc3)c2)C2=CN=NC2NC2=C1C(=O)CC(C)(C)C2` (configuration not stated) [US20250313563, Compound 932634], the figures for the IC50 in assay [1] and in assay [2] were < 100 nM and 100 to 1000 nM, respectively.
The like results for `CC[C@]1(c2cccc(N3CCOc4ccccc43)c2)C2=CN=NC2NC2=C1C(=O)CC(C)(C)C2` (some centres not stated) [US20250313563, Compound 932635] were, in that order, > 5000 nM and > 5000 nM.
As to `CC[C@]1(c2cccc(N(C)c3cccc(F)n3)c2)C2=CN=NC2NC2=C1C(=O)CC(C)(C)C2` (some centres not stated) [US20250313563, Compound 932636], the IC50 in assay [1] and in assay [2] was < 100 nM throughout.
For the molecule `CC[C@@]1(c2cccc(-c3ccnc(C)c3)c2)C2=CN=NC2NC2=C1C(=O)C[C@H](C)C2` (some centres not stated) [US20250313563, Compound 932638], the IC50 in assay [1] and in assay [2] was > 5000 nM each time.
As to `CC1(C)CC(=O)C2=C(C1)NC1=C(CN=N1)[C@@]21CCCN(S(=O)(=O)C2CC2)CC1` [US20250313563, Compound 932639], the results for the IC50 in assay [1] and in assay [2] were < 100 nM and 100 to 1000 nM, respectively.
Consider `Cn1ccc(S(=O)(=O)N2CCC[C@]3(CC2)C2=CN=NC2NC2=C3C(=O)CC(C)(C)C2)n1` (some centres not stated) [US20250313563, Compound 932640], for which the IC50 in assay [1] and in assay [2] was < 100 nM throughout.
In the case of `COc1ccc(S(=O)(=O)N2CCC[C@]3(CC2)C2=CN=NC2NC2=C3C(=O)CC(C)(C)C2)cc1` (some centres not stated) [US20250313563, Compound 932641], the results for the IC50 in assay [1] and in assay [2] were < 100 nM and 100 to 1000 nM, respectively.
The like results for `CC[C@]1(c2cccc(N3CCOc4ncccc43)c2)C2=CN=NC2NC2=C1C(=O)CC(C)(C)C2` (some centres not stated) [US20250313563, Compound 932643] were, in that order, 100 to 1000 nM and 1000 to 5000 nM.
